Measured values reported in patent publication US20040254162A1, “Oxazolidinone derivatives as antimicrobials” (priority 2001, published 2004).
Converted amounts (≈) assume the structure as drawn. “And” between values parts separate entries of the source, which are not always exact repeats. Identical values can stand only once.

How the values were obtained:
Clostridium camis = test: Agar dilution MIC, anaerobes; type: cell-based; details: single isolates, anaerobic agar dilution; for MIC: Clostridium, read-out: MIC Clostridium camis
Clostridium difficile = test: Agar dilution MIC, anaerobes; type: cell-based; details: single isolates, anaerobic agar dilution
P. acnes = test: Agar dilution MIC, anaerobes; type: cell-based; details: single isolates, anaerobic agar dilution; for MIC: Cutibacterium acnes, read-out: MIC P. acnes
[1] = system: Prevotella melaninogenica; test: Agar dilution MIC, anaerobes; type: cell-based; details: single isolates, anaerobic agar dilution
[2] = system: Porphyromonas asaccharolytica; test: Agar dilution MIC, anaerobes; type: cell-based; details: single isolate, anaerobic agar dilution; for MIC: Porphyromonas asaccharolytica, read-out: MIC Porphyromonas asaccharolytica
[3] = system: Prevotella (Bacteroides) disiens; test: Agar dilution MIC, anaerobes; type: cell-based; details: single isolates, anaerobic agar dilution
Porphyromonas gingivalis = test: Agar dilution MIC, anaerobes; type: cell-based; details: single isolate, anaerobic agar dilution; for MIC: Porphyromonas gingivalis, read-out: MIC Porphyromonas gingivalis
Prevotella intermedia = test: Agar dilution MIC, anaerobes; type: cell-based; details: single isolates, anaerobic agar dilution; for MIC: Prevotella intermedia, read-out: MIC Prevotella intermedia
Prevotella bivia = test: Agar dilution MIC, anaerobes; type: cell-based; details: single isolate, anaerobic agar dilution
Fusobacterium nucleatum = test: Agar dilution MIC, anaerobes; type: cell-based; details: single isolates, anaerobic agar dilution; for MIC: Fusobacterium nucleatum, read-out: MIC Fusobacterium nucleatum
[4] = system: Peptostreptococcus asaccharolyticus; test: Agar dilution MIC, anaerobes; type: cell-based; details: single isolates, anaerobic agar dilution
Bacteroides fragilis = test: Agar dilution MIC, anaerobes; type: cell-based; details: single isolates, anaerobic agar dilution
Fusobacterium necrogenes = test: Agar dilution MIC, anaerobes; type: cell-based; details: single isolate, anaerobic agar dilution; for MIC: Fusobacterium necrogenes, read-out: MIC Fusobacterium necrogenes
Clostridium perfringens = test: microbe, parasite or virus in culture; type: cell-based; details: single isolates, anaerobic agar dilution
Fusobacterium montiferum = test: Agar dilution MIC, anaerobes; type: cell-based; details: single isolates, anaerobic agar dilution
Fusobacterium varium = test: Agar dilution MIC, anaerobes; type: cell-based; details: single isolates, anaerobic agar dilution
anaerobic bacteria = test: Agar dilution method for anaerobic bacteria, summary; type: cell-based
[5] = system: Mycobacterium tuberculosis; test: microbe, parasite or virus in culture; details: 504 h
[6] = system: Mycobacterium tuberculosis; details: geometric mean MIC
[7] = system: Mycobacterium avium intracellulare; test: Agar dilution method, mycobacteria; type: cell-based; details: for MIC50 / MIC90: Mycobacterium avium, 504 h, Middlebrook 7H10 agar, 21 days; for MIC50: read-out: MIC50; for MIC90: read-out: MIC90; for G.M.: geometric mean MIC
Eubacterium leutum = test: Agar dilution MIC, anaerobes; type: cell-based; details: single isolates, anaerobic agar dilution; for MIC: Eubacterium, read-out: MIC Eubacterium leutum
[8] = system: Peptostreptococcus tetradius; test: Agar dilution MIC, anaerobes; type: cell-based; details: Anaerococcus tetradius, single isolates, anaerobic agar dilution; read-out: MIC Peptostreptococcus tetradius
[9] = system: Peptostreptococcus prevotii; test: Agar dilution MIC, anaerobes; type: cell-based; details: Anaerococcus prevotii, single isolates, anaerobic agar dilution; read-out: MIC Peptostreptococcus prevotii
[10] = system: Peptostreptococcus micros; test: Agar dilution MIC, anaerobes; type: cell-based; details: Parvimonas micra, single isolates, anaerobic agar dilution; read-out: MIC Peptostreptococcus micros
[11] = anaerobes, Wilkins Chalgren agar, 48 hour

Compound	MIC P. acnes (P. acnes) [µg/mL]	MIC Prevotella (Bacteroides) disiens [3]	MIC Fusobacterium nucleatum (Fusobacterium nucleatum) [µg/mL]	MIC Peptostreptococcus asaccharolyticus [4] [µg/mL]	MIC Bacteroides fragilis (Bacteroides fragilis) [µg/mL]	MIC Fusobacterium montiferum (Fusobacterium montiferum) [µg/mL]	MIC Fusobacterium varium (Fusobacterium varium) [µg/mL]	Geometric Mean (anaerobic bacteria; anaerobes) [µg/mL]	MIC Range (anaerobic bacteria; anaerobes) [µg/mL]	MIC50 [5] [µg/mL]	MIC90 [5] [µg/mL]	G.M. [6] [µg/mL]	MIC50 [7] [µg/mL]	MIC90 [7] [µg/mL]	G.M. [7] [µg/mL]	MIC (Clostridium camis) [µg/mL]	MIC (P. acnes) [µg/mL]	MIC [2] [µg/mL]	MIC (Porphyromonas gingivalis) [µg/mL]	MIC (Prevotella intermedia) [µg/mL]	further results
Teicoplanin	0.25	16 µg/mL and >16 µg/mL	>16	0.125	>16	>16	>16	2.04	0.03 to 32	–	–	–	–	–	–	–	–	–	–	–	MIC Clostridium camis (Clostridium camis): <=.06 μg/ml; MIC Clostridium difficile (Clostridium difficile): 0.25 µg/mL; MIC Prevotella melaninogenica [1]: 2 µg/mL and 4 µg/mL; MIC Porphyromonas asaccharolytica [2]: 0.125 µg/mL; MIC Porphyromonas gingivalis (Porphyromonas gingivalis): <=.06 μg/ml; MIC Prevotella intermedia (Prevotella intermedia): 0.5 µg/mL; MIC Prevotella bivia (Prevotella bivia): 1 µg/mL; MIC Fusobacterium necrogenes (Fusobacterium necrogenes): >16 µg/mL; MIC Clostridium perfringens (Clostridium perfringens): <=.06 μg/ml; MIC50 (anaerobic bacteria; [11]): 2 µg/mL; MIC90 (anaerobic bacteria; [11]): 32 µg/mL
C[C@@H]1CN(c2c(F)c(N)c3c(=O)c(C(=O)O)cn(C4CC4)c3c2F)C[C@H](C)N1 [Sparfloxacin]	–	–	–	–	–	–	–	–	–	1 (≈ 2.55 µM)	2 (≈ 5.1 µM)	0.53	4 (≈ 10.2 µM)	8 (≈ 20.4 µM)	3.526	–	–	–	–	–	–
COc1c(N2C[C@@H]3CCCN[C@@H]3C2)c(F)cc2c(=O)c(C(=O)O)cn(C3CC3)c12 [Moxifloxacin]	0.125 (≈ 0.311 µM)	0.5 µg/mL (≈ 1.25 µM)	0.25 (≈ 0.623 µM)	0.25 (≈ 0.623 µM)	0.5 (≈ 1.25 µM)	0.5 (≈ 1.25 µM)	–	–	–	–	–	–	–	–	–	0.25 (≈ 0.623 µM)	0.25 (≈ 0.623 µM)	0.5 (≈ 1.25 µM)	0.03 (≈ 0.0747 µM)	0.5 (≈ 1.25 µM)	MIC ([3]; read-out: MIC Prevotella (Bacteroides) disiens): 0.25 µg/mL (≈ 0.623 µM); MIC (Fusobacterium nucleatum): 0.125 µg/mL (≈ 0.311 µM); MIC (Eubacterium leutum): 0.5 µg/mL (≈ 1.25 µM); MIC [8]: 0.5 µg/mL (≈ 1.25 µM); MIC ([4]; Peptoniphilus asaccharolyticus): 0.125 µg/mL (≈ 0.311 µM); MIC [9]: 0.25 µg/mL (≈ 0.623 µM); MIC (Bacteroides fragilis; Bacteroides fragilis, read-out: MIC Bacteroides fragilis): 0.25 µg/mL (≈ 0.623 µM); MIC (Fusobacterium necrogenes): 1 µg/mL (≈ 2.49 µM); MIC (Fusobacterium montiferum; Fusobacterium, read-out: MIC Fusobacterium montiferum): 0.25 µg/mL (≈ 0.623 µM)
NNC(=O)c1ccncc1 [Isoniazid]	–	–	–	–	–	–	–	–	–	8 (≈ 58.3 µM)	64 (≈ 467 µM)	3.17	32 (≈ 233 µM)	64 (≈ 467 µM)	18.149	–	–	–	–	–	–
C[C@@H](O)[C@H]1C(=O)N2C(C(=O)O)=C(SCCN=CN)C[C@H]12 [Imipenem]	–	–	–	–	–	–	1 (≈ 3.34 µM)	0.084	0.008 to 4	–	–	–	–	–	–	0.06 (≈ 0.2 µM)	≤ 0.016	0.03 (≈ 0.1 µM)	≤ 0.016	≤ 0.016	MIC (Clostridium difficile; Clostridioides difficile, read-out: MIC Clostridium difficile): 4 µg/mL (≈ 13.4 µM); MIC ([1]; Prevotella melaninogenica, read-out: MIC Prevotella melaninogenica): ≤ 0.016 µg/mL; MIC (Prevotella bivia; Prevotella bivia, read-out: MIC Prevotella bivia): 0.03 µg/mL (≈ 0.1 µM); MIC (Fusobacterium nucleatum): ≤ 0.016 µg/mL; MIC (Eubacterium leutum): 0.25 µg/mL (≈ 0.835 µM); MIC Eubacterium leutum (Eubacterium leutum): 0.5 µg/mL (≈ 1.67 µM); MIC [8]: 0.03 µg/mL (≈ 0.1 µM); MIC [9]: ≤ 0.016 µg/mL; MIC [10]: 0.03 µg/mL (≈ 0.1 µM); MIC (Fusobacterium necrogenes): 0.25 µg/mL (≈ 0.835 µM); MIC (Fusobacterium varium; Fusobacterium varium, read-out: MIC Fusobacterium varium): 0.5 µg/mL (≈ 1.67 µM); MIC50 (anaerobic bacteria; 48 h): 0.064 µg/mL (≈ 0.214 µM); MIC90 (anaerobic bacteria; 48 h): 1 µg/mL (≈ 3.34 µM)
CC[C@H]1OC(=O)[C@H](C)[C@@H](O[C@H]2C[C@@](C)(OC)[C@@H](O)[C@H](C)O2)[C@H](C)[C@@H](O[C@@H]2O[C@H](C)C[C@H](N(C)C)[C@H]2O)[C@](C)(OC)C[C@@H](C)C(=O)[C@H](C)[C@@H](O)[C@]1(C)O [Clarithromycin]	–	–	–	–	–	–	–	–	–	16 (≈ 21.4 µM)	32 (≈ 42.8 µM)	12.69	1 (≈ 1.34 µM)	4 (≈ 5.35 µM)	1.554	–	–	–	–	–	–
